Test results as given in the supplement of paper PMC10307832.

What was measured:
Assay in all cases: relative viability (nuclei count vs DMSO), 5 days (fraction); higher = more cells survive
Obatoclax + Luminespib = compound: COC1=CC(c2cc3ccccc3[nH]2)=N/C1=C\c1[nH]c(C)cc1C [Obatoclax] + CCNC(=O)c1noc(-c2cc(C(C)C)c(O)cc2O)c1-c1ccc(CN2CCOCC2)cc1 [Luminespib] (partner 0.01 µM)
Summary of the method: (§1)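 Lung cancer cell lines were seeded in 1536-well plates and dosed by pin tool the next day, with either a single drug or a fixed anchor-drug dose combined with five library-drug doses (not always all listed) spaced in √10 steps. Five days later, one step fixed the cells and stained their nuclei (final 0.05% Triton X-100, 1% formaldehyde, 1 ug/ml Hoechst), and nuclei were counted on 4× images. Relative viability is the nuclei count in treated wells divided by the count in vehicle wells, and each value is the median of duplicate plates.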

[1] = compound: CC1=CC(=NN1)NC2=CC(=NC(=N2)/C=C/C3=CC=CC=C3)N4CCN(CC4)C + Nc1nc2[nH]cc(CCc3ccc(C(=O)N[C@@H](CCC(=O)O)C(=O)O)cc3)c2c(=O)[nH]1 [Pemetrexed] (partner 0.2 µM)
Summary of the method: as §1

Obatoclax + Dasatinib = compound: COC1=CC(c2cc3ccccc3[nH]2)=N/C1=C\c1[nH]c(C)cc1C [Obatoclax] + Cc1nc(Nc2ncc(C(=O)Nc3c(C)cccc3Cl)s2)cc(N2CCN(CCO)CC2)n1 [Dasatinib] (partner 0.075 µM)
Summary of the method: as §1

Obatoclax + Crizotinib = compound: COC1=CC(c2cc3ccccc3[nH]2)=N/C1=C\c1[nH]c(C)cc1C [Obatoclax] + C[C@@H](Oc1cc(-c2cnn(C3CCNCC3)c2)cnc1N)c1c(Cl)ccc(F)c1Cl [Crizotinib] (partner 1 µM)
Summary of the method: as §1

| Cell Line | relative viability (Obatoclax + Luminespib; first compound 0.01 µM) | relative viability (Obatoclax + Luminespib; first compound 0.03162 µM) | relative viability (Obatoclax + Luminespib; first compound 0.1 µM) | relative viability (Obatoclax + Luminespib; first compound 0.3162 µM) | relative viability (Obatoclax + Luminespib; first compound 1 µM) | relative viability ([1]; first compound 0.08 µM) | relative viability ([1]; first compound 0.253 µM) | relative viability ([1]; first compound 0.8 µM) | relative viability ([1]; first compound 2.53 µM) | relative viability ([1]; first compound 8 µM) | relative viability (Obatoclax + Dasatinib; first compound 0.01 µM) | relative viability (Obatoclax + Dasatinib; first compound 0.03162 µM) | relative viability (Obatoclax + Dasatinib; first compound 0.1 µM) | relative viability (Obatoclax + Dasatinib; first compound 0.3162 µM) | relative viability (Obatoclax + Dasatinib; first compound 1 µM) | relative viability (Obatoclax + Crizotinib; first compound 0.01 µM) | relative viability (Obatoclax + Crizotinib; first compound 1 µM) | relative viability (Obatoclax + Crizotinib; first compound 0.03162 µM) | relative viability (Obatoclax + Crizotinib; first compound 0.1 µM) | relative viability (Obatoclax + Crizotinib; first compound 0.3162 µM) |
| --- | --- | --- | --- | --- | --- | --- | --- | --- | --- | --- | --- | --- | --- | --- | --- | --- | --- | --- | --- | --- |
| NCI-H661 | 0.917 | 0.937 | 0.921 | 0.808 | 0.601 | 0.884 | 0.898 | 0.855 | 0.576 | 0.326 | 0.875 | 0.846 | 0.427 | 0.762 | 0.4 | 0.851 | 1.03 | – | – | – |
| NCI-H2170 | 0.624 | 0.592 | 0.761 | 0.588 | 0.652 | 0.266 | 0.246 | 0.248 | 0.193 | 0.181 | 0.626 | 0.617 | 0.528 | 0.529 | 0.677 | 1.13 | 1.09 | 1.13 | 1.11 | 1.2 |
| PC-3 [JPC-3] | 0.652 | 0.606 | 0.742 | 0.683 | 0.745 | 1.15 | 1.2 | 1.03 | 0.849 | 0.361 | 0.963 | 1.02 | 1.01 | 1.01 | 0.943 | 0.942 | 0.917 | 0.892 | 0.949 | 0.984 |
| LCLC-103H | 0.948 | 0.875 | 1.02 | 0.911 | 0.969 | 0.476 | 0.465 | 0.458 | 0.516 | 0.359 | 0.458 | 0.464 | 0.411 | 0.517 | 0.53 | 0.944 | 1.03 | 1.03 | 1.02 | 1.03 |
| EKVX | 0.899 | 0.954 | 0.979 | 0.67 | 0.728 | 0.366 | 0.5 | 0.674 | 0.361 | 0.197 | 0.567 | 0.491 | 0.539 | 0.594 | 0.522 | 0.867 | 0.643 | 0.979 | 0.979 | 0.914 |
| NCI-H460 | 0.0359 | 0.0371 | 0.0282 | 0.0268 | 0.019 | 0.0607 | 0.0584 | 0.0607 | 0.0513 | 0.0228 | 0.497 | 0.385 | 0.384 | 0.343 | 0.21 | 0.727 | 0.0446 | 0.716 | 0.605 | 0.244 |
| NCI-H838 | 0.226 | 0.222 | 0.3 | 0.243 | 0.188 | 0.235 | 0.25 | 0.213 | 0.166 | 0.111 | 0.298 | 0.25 | – | 0.277 | 0.226 | 0.848 | 0.777 | 0.959 | 0.827 | 0.77 |
| NCI-H1792 | 0.419 | 0.474 | – | 0.376 | 0.394 | 0.624 | 0.888 | 0.722 | 0.0892 | 0.0324 | 0.867 | 0.8 | – | 0.72 | 0.962 | 0.999 | 0.99 | 0.948 | – | 0.999 |
| H3255 | 0.903 | 0.823 | 0.899 | 0.88 | 0.806 | 0.526 | 0.589 | 0.573 | 0.555 | 0.391 | 0.301 | 0.323 | 0.422 | 0.348 | 0.302 | 0.773 | 0.697 | 0.87 | 0.828 | 0.624 |
| EPLC-272H | 0.377 | 0.235 | 0.393 | 0.189 | 0.168 | 0.329 | 0.363 | 0.342 | 0.104 | 0.136 | 0.36 | 0.31 | 0.342 | 0.264 | 0.147 | 0.873 | 0.946 | 0.682 | 0.803 | 0.941 |
| NCI-H647 | 0.128 | 0.186 | 0.179 | 0.21 | 0.114 | 0.2 | 0.174 | 0.168 | 0.0748 | 0.0585 | 0.258 | 0.164 | 0.149 | 0.0862 | 0.0719 | 0.997 | 0.133 | 1.13 | 0.762 | 0.286 |
| LXF-289 | 0.707 | 0.649 | 0.594 | 0.619 | 0.662 | 0.872 | 0.874 | 0.895 | 0.615 | 0.444 | 0.23 | 0.23 | 0.0916 | 0.221 | 0.154 | 0.796 | 0.679 | 0.8 | 0.83 | 0.822 |
| NCI-H1650 | 0.172 | 0.208 | 0.21 | 0.202 | 0.23 | 0.37 | 0.373 | 0.379 | 0.268 | 0.146 | 0.304 | 0.329 | 0.396 | 0.271 | 0.179 | 0.892 | 0.297 | 1.01 | 1.05 | 0.699 |
| NCI-H1755 | 0.416 | 0.418 | 0.388 | 0.714 | 0.713 | 0.428 | 0.381 | 0.462 | 0.32 | 0.294 | 0.425 | 0.402 | 0.335 | 0.44 | 0.397 | 0.846 | 0.867 | 0.833 | 0.813 | 0.925 |
| HCC-15 | 0.302 | 0.148 | 0.267 | 0.361 | 0.274 | 0.244 | 0.22 | 0.225 | 0.192 | 0.113 | 0.574 | 0.589 | 0.533 | 0.626 | 0.368 | 0.768 | 0.689 | 0.821 | 0.741 | 0.776 |
| EMC-BAC-2 | 1.2 | 1.19 | 1.16 | 1.08 | 1.02 | 0.439 | 0.495 | 0.445 | 0.465 | 0.234 | 0.357 | 0.325 | 0.255 | 0.264 | 0.284 | 0.777 | 0.634 | 0.725 | 0.738 | 0.745 |
| NCI-H1734 | 0.201 | 0.188 | 0.2 | 0.187 | 0.18 | 0.409 | 0.384 | 0.409 | 0.238 | 0.199 | 0.493 | 0.287 | 0.427 | 0.375 | 0.2 | 0.665 | 0.447 | 0.701 | – | 0.625 |
| HOP-62 | 0.854 | 0.815 | 0.846 | 0.88 | 0.926 | 0.364 | 0.328 | 0.288 | 0.294 | 0.182 | 0.718 | 0.64 | 0.439 | 0.787 | 0.534 | 0.837 | 1 | 0.911 | 0.998 | 0.796 |
| LK-2 | 0.183 | 0.23 | 0.231 | 0.189 | 0.164 | 0.199 | 0.288 | 0.306 | 0.217 | 0.0825 | 0.329 | 0.263 | 0.394 | 0.375 | 0.229 | 0.243 | 0.257 | 0.179 | 0.236 | 0.231 |
| SW 1573 | 0.26 | 0.442 | 0.206 | 0.188 | 0.164 | 0.802 | 0.852 | 0.735 | 0.126 | 0.0679 | 0.413 | 0.454 | 0.53 | 0.134 | 0.136 | 0.781 | 0.483 | 0.749 | 0.843 | 0.861 |
| SK-LU-1 | 0.195 | 0.205 | 0.173 | 0.173 | 0.11 | 1 | 0.943 | 0.933 | 0.372 | 0.127 | 0.184 | 0.19 | 0.141 | 0.157 | 0.141 | 1.03 | 0.339 | 0.836 | 0.761 | 0.403 |
| NCI-H23 | 0.21 | 0.193 | 0.195 | 0.185 | 0.191 | 0.508 | 0.768 | 0.542 | 0.215 | 0.118 | 0.826 | 0.838 | 0.825 | 0.757 | 0.306 | 0.555 | 0.282 | 0.507 | 0.469 | 0.527 |
| NCI-H1355 | 0.641 | 0.588 | 0.769 | 0.632 | 0.78 | 1.04 | 1.01 | 1.01 | 0.902 | 0.546 | 0.836 | 0.675 | 0.538 | 0.68 | 0.535 | 1.13 | 0.915 | 0.93 | 1.04 | 1.03 |
| COR-L23 | 0.556 | 0.638 | 0.45 | 0.178 | 0.115 | 0.202 | 0.203 | 0.179 | 0.166 | 0.105 | 0.494 | 0.488 | 0.416 | 0.285 | 0.163 | 0.632 | 0.174 | 0.696 | 0.635 | 0.212 |
| NCI-H2023 | 0.57 | 0.799 | 0.556 | 0.257 | 0.107 | 0.214 | 0.283 | 0.198 | 0.117 | 0.0581 | 0.518 | 0.548 | 0.53 | 0.412 | 0.194 | 0.764 | 0.568 | 0.638 | 0.6 | 0.601 |
| A-427 | 0.952 | 0.962 | 0.916 | 0.775 | 0.674 | 1.06 | 1.1 | 0.97 | 0.51 | 0.202 | 0.719 | 0.687 | 0.462 | 0.6 | 0.271 | 0.958 | 0.968 | 0.792 | 0.802 | 0.999 |
| UMC-11 | 0.993 | 0.968 | 1.05 | 1.07 | 0.428 | 0.74 | 0.705 | 0.481 | 0.148 | 0.122 | 0.443 | 0.529 | 0.468 | 0.372 | 0.278 | 0.671 | 0.346 | 0.615 | 0.53 | 0.682 |
